Read-outs that look alike come from different tables or passages of the source.
Columns and labels:
MCF-7 cells = test: cells; conditions: for inhibition at 1 µM / Emax / cytotoxicity at 10 µM: Homo sapiens, MCF7, 96 h; for inhibition at 1 µM: read-out: Antagonism at 1 µM (% of full antagonism); for Emax: read-out: Maximal Agonism (% of E2); for Kill of MCF-7 cells (in words): highest investigated concentration (10 µM); for Hormonal activity (in words): summary statement referring to Table 2
Experimental: For experiments involving hormone or anti-hormone treatment, the cells in exponential growth phase were precultivated in the absence of estradiol for one day. […] After the incubation period the medium was removed. The exposure to study drugs was started immediately by adding fresh medium with 5 % stripped serum. Half of the cells were grown with estradiol, half without estradiol. Study compounds (dissolved in ethanol in 0.01 M concentration and diluted with the growth medium as appropriate) were added. The final concentrations of the compounds were 1,10, and 100 nM, and 1 and 10 µM. The cells were incubated for four days.
This method allows evaluation of estrogenicity based on the ability of the compounds to stimulate the growth of the estrogen-dependent cells in the absence of estradiol. Estrogenicity was estimated by comparing the maximal growth stimulus (at any concentration) of study compound as per cent from growth stimulus by estradiol (100 % stimulus). […] At high concentrations molecules may also show toxicity. Toxicity was estimated as the fraction of dead cells (i.e. 100 % means that all cells have died during the exposure).

immature female rats = test: 3 day uterotropic assay in immature female rats (given alone and with estradiol); format: in vivo; conditions: for Estrogen antagonism (% inhibition of estradiol) Given with estradiol / Uterotropic effect (% of estradiol) Given without estradiol: 3 days, immature female rats
Experimental: The values are given at two dose levels, low i.e. 3―5 mg/kg and high i.e. 10―50 mg/kg. Estrogenic activity can be estimated also after a 4 weeks' treatment of ovariectomized rats based on the uterine size.

[1] = read-out: Maximal Cell Kill (% fraction of dead cells), With estradiol (E2), toxicity at 10 µmol/l, 100 = all cells dead
[2] = read-out: Maximal Cell Kill (% fraction of dead cells), Without estradiol (E2), toxicity at 10 µmol/l, 100 = all cells dead

Structure (SMILES): OCCOc1ccc(/C(=C(/CCCl)c2ccccc2)c2ccccc2)cc1 [FC-1271a, 2-[4-(4-chloro-1,2-diphenyl-but-1-enyl)phenoxy]ethanol, reference compound]
- inhibition at 1 µM (MCF-7 cells): 21%
- Emax (MCF-7 cells): 23%
- cytotoxicity at 10 µM (MCF-7 cells; [1]): 80%
- cytotoxicity at 10 µM (MCF-7 cells; [2]): 50%

Structure (SMILES): CCCCN(C)C(=O)CCCCCCCCCC[C@@H]1Cc2cc(O)ccc2[C@H]2CC[C@]3(C)[C@@H](O)CC[C@H]3[C@H]12 [ICI 164,384, reference compound]
- inhibition at 1 µM (MCF-7 cells): 100%
- Emax (MCF-7 cells): 9%
- cytotoxicity at 10 µM (MCF-7 cells; read-out: Maximal Cell Kill (% fraction of dead cells)): 100%

Structure (SMILES): CN(C)CCOc1ccc(/C(=C(/CCCl)c2ccccc2)c2ccc(F)cc2)cc1 [No. 1, (E)-(2-{4-[4-Chloro-1-(4-fluorophenyl)-2-phenylbut-1-enyl]phenoxy}ethyl)-dimethylamine]
- inhibition at 1 µM (MCF-7 cells): 8%
- Emax (MCF-7 cells): 1%
- cytotoxicity at 10 µM (MCF-7 cells; [1]): 100%
- cytotoxicity at 10 µM (MCF-7 cells; [2]): 100%
- Estrogenic action in vitro (in words) (MCF-7 cells; Table 2): no estrogenic action in vitro
- Kill of MCF-7 cells (in words) (MCF-7 cells; Table 2): kill MCF-7 cells (human breast cancer cells) effectively
- Hormonal activity (in words) (MCF-7 cells): weak hormonal activity
- Estrogenic action in vivo (in words) (immature female rats; Table 3): weak estrogen in vivo
- Estrogen antagonism (% inhibition of estradiol) Given with estradiol (immature female rats; dose 3–5 mg/kg): 26 % inhibition of estradiol
- Uterotropic effect (% of estradiol) Given without estradiol (immature female rats; dose 3–5 mg/kg): 42 % of estradiol
- Estrogen antagonism (% inhibition of estradiol) Given with estradiol (immature female rats; dose 10–50 mg/kg): 31 % inhibition of estradiol
- Uterotropic effect (% of estradiol) Given without estradiol (immature female rats; dose 10–50 mg/kg): 74 % of estradiol

Structure (SMILES): CN(C)CCOc1ccc(/C(=C(\CCCl)c2ccccc2)c2ccc(F)cc2)cc1 [No. 2, (Z)-(2-{4-[4-Chloro-1-(4-fluorophenyl)-2-phenylbut-1-enyl]phenoxy}ethyl)-dimethylamine]
- inhibition at 1 µM (MCF-7 cells): 29%
- Emax (MCF-7 cells): 100%
- cytotoxicity at 10 µM (MCF-7 cells; [1]): 100%
- cytotoxicity at 10 µM (MCF-7 cells; [2]): 32%

Structure (SMILES): CN(C)CCOc1ccc(/C(=C(/CCCl)c2ccc(Cl)cc2)c2ccc(Cl)cc2)cc1 [No. 4, (E)-(2-{4-[4-Chloro-1,2-bis(4-chlorophenyl)but-1-enyl]phenoxy}ethyl)-dimethylamine]
- inhibition at 1 µM (MCF-7 cells): 10%
- Emax (MCF-7 cells): 10%
- cytotoxicity at 10 µM (MCF-7 cells; [1]): 100%
- cytotoxicity at 10 µM (MCF-7 cells; [2]): 90%

Structure (SMILES): CN(C)CCOc1ccc(/C(=C(\CCCl)c2ccc(Cl)cc2)c2ccc(Cl)cc2)cc1 [No. 5, (Z)-(2-{4-[4-Chloro-1,2-bis(4-chlorophenyl)but-1-enyl]phenoxy}ethyl)-dimethylamine]
- inhibition at 1 µM (MCF-7 cells): 31%
- Emax (MCF-7 cells): 11%
- cytotoxicity at 10 µM (MCF-7 cells; [1]): 100%
- cytotoxicity at 10 µM (MCF-7 cells; [2]): 100%

Structure (SMILES): OCCOc1ccc(/C(=C(/CCCl)c2ccccc2)c2ccc(F)cc2)cc1 [No. 8, (E)-2-{4-[4-Chloro-2-phenyl-1-(4-fluorophenyl)but-1-enyl]phenoxy} ethanol]
- inhibition at 1 µM (MCF-7 cells): 92%
- Emax (MCF-7 cells): 31%
- cytotoxicity at 10 µM (MCF-7 cells; [1]): 52%
- cytotoxicity at 10 µM (MCF-7 cells; [2]): 2%

Structure (SMILES): OCCOc1ccc(/C(=C(/CCCl)c2ccc(Cl)cc2)c2ccc(Cl)cc2)cc1 [No. 9, (E)-2-{4-[4-Chloro-1,2-bis(4-chlorophenyl)but-1-enyl]phenoxy}ethanol]
- inhibition at 1 µM (MCF-7 cells): 9%
- Emax (MCF-7 cells): 14%
- cytotoxicity at 10 µM (MCF-7 cells; [1]): 62%
- cytotoxicity at 10 µM (MCF-7 cells; [2]): 45%

Structure (SMILES): OCCOc1ccc(C(=C(CCCl)c2ccccc2)c2ccc(OCCO)cc2)cc1 [No. 16, 2-(4-{4-Chloro-1-[4-(2-hydroxyethoxy)phenyl]-2-phenyl-but-1-enyl}phenoxy)-1-ethanol]
- inhibition at 1 µM (MCF-7 cells): 23%
- Emax (MCF-7 cells): 22%
- cytotoxicity at 10 µM (MCF-7 cells; [1]): 96%
- cytotoxicity at 10 µM (MCF-7 cells; [2]): 90%
- Kill of MCF-7 cells (in words) (MCF-7 cells; Table 2): kill MCF-7 cells (human breast cancer cells) effectively
- Hormonal activity (in words) (MCF-7 cells): weak hormonal activity

Structure (SMILES): OCCOc1ccc(/C(=C(/CCCl)c2ccccc2)c2ccc(Cl)cc2)cc1 [No. 17, (E)-2-{4-[4-Chloro-2-phenyl-1-(4-chlorophenyl)but-1-enyl]phenoxy} ethanol]
- inhibition at 1 µM (MCF-7 cells): 17%
- Emax (MCF-7 cells): 0%
- cytotoxicity at 10 µM (MCF-7 cells; [1]): 38%
- cytotoxicity at 10 µM (MCF-7 cells; [2]): 44%

Structure (SMILES): OCCOc1cccc(/C(=C(/CCCl)c2ccccc2)c2ccccc2)c1 [No. 18, (Z)-2-[3-(4-Chloro-1,2-diphenyl-but-1-enyl)phenoxy]ethanol]
- inhibition at 1 µM (MCF-7 cells): 1%
- cytotoxicity at 10 µM (MCF-7 cells; [1]): 40%
- cytotoxicity at 10 µM (MCF-7 cells; [2]): 10%
- Estrogenic and antiestrogenic action (in words) (MCF-7 cells; summary statement referring to Tables 2, 3 and 4): weak estrogenic and no antiestrogenic action
